# Measured values from paper PMC10975719, “Tobramycin Reduces Pulmonary Toxicity of Polymyxin B via Inhibiting the Megalin-Mediated Drug Uptake in the Human Lung Epithelial Cells” (Pharmaceutics, 2024).
# Read-outs that look alike come from different tables or passages of the source. Bridge positions count the residues as written; N and C are the ends. Square brackets hold non-standard residues; d marks the D form. Peptide text beside a SMILES is read from it. * marks the point of attachment. X1 = CC[C@H](C)CCCCC(=O)*; Dab = NCC[C@H](N)C(=O)O
# Columns and labels:
# renal cortex = settings: 400 mg/kg of sodium maleate administration, within 3 h after injection; cited from earlier work
# Calu-3 cells = assay: Cellular uptake of polymyxin B by confocal microscopy (anti-polymyxin B antibody, Alexa 647); assay type: cell-based, human; settings: 4 h
# Protocol: Polymyxin B distribution in the Calu-3 cell monolayer was investigated using confocal laser scanning microscopy (CLSM). At the end of the transport process, the Calu-3 cell monolayer was prepared for imaging. The cell monolayer was washed with phosphate-buffered saline after treatment and fixed with 4% paraformaldehyde for 15 min. The cell monolayer was then permeabilized with 0.1% triton X-100 for 10 min and blocked with 3% goat serum in 0.1% triton X-100 for 2 h. To stain intracellular polymyxin B, the cell monolayer was then incubated overnight with mouse anti-polymyxin B antibody at 4 °C in the dark. After overnight incubation, the cell monolayer was incubated with goat anti-mouse IgG conjugated with Alexa Flour™ 647 for 2 h at room temperature. The nuclei were stained with Hoechst 33342.
# For the drug accumulation study, Calu-3 cells were cultured in a glass bottom 35 mm dish (Ashland, MA, USA) and were incubated with 30 mg/L polymyxin B in the absence and presence of 70 mg/L tobramycin for 4 h. […] For the drug accumulation study, the background subtracted integrated density of Alexa Flour 647 (for polymyxin B) was calculated and data were presented as mean polymyxin B intensity per cell. Cell numbers per imaging field were counted using the Hoechst 33342 intensity and ImageJ “cell counter” Macro (ImageJ version 2.9).
# Calu-3 cell monolayer [1] = assay: Transport in Calu-3 cell monolayer in presence of megalin inhibitor sodium maleate; assay type: in vitro ADME, human; settings: for cellular accumulation / remaining in the apical chamber / intracellular accumulation normalized to protein: 2 h; for intracellular accumulation normalized to protein: Calu-3 monolayer lysate (RIPA)
# Protocol: The transport behavior of polymyxin B and tobramycin in the Calu-3 cell monolayer were also evaluated in the presence of 8 mg/mL of sodium maleate, an agent known to inhibit megalin receptors via shedding of the megalin protein [23]. Calu-3 cell monolayer in trans-well inserts was formed following our previously published ALI culture protocol. Cell monolayers were pre-incubated with 8 mg/mL of sodium maleate for 4 h and were subsequently incubated with polymyxin B and tobramycin for 2 h. Samples were collected from the apical and basal chambers of the ALI culture system, analyzed using an LC-MS/MS system, and the drug content was calculated. The cell monolayer was then lysed with lysis buffer (RIPA buffer, Catalogue 89900, Thermofisher Scientific, Waltham, MA, USA) and cellular drug content was measured. Cell lysate (25 µL) from each sample was used for protein measurement. The amount of drug accumulated in the cell was normalized according to the amount of protein present in the samples. Polymyxin B and tobramycin concentrations in the samples, in the presence and absence of the megalin inhibitor sodium maleate, were plotted and statistical significance was calculated using Graph Pad Prism (version 9).
# [2] = tested on: human lung epithelial Calu-3 cells; assay type: cell-based
# Protocol: Assessment of cytotoxicity was performed using aqueous solutions of polymyxin B, tobramycin, and the combination of both in human lung epithelial Calu-3 cells. This cytotoxicity assessment aimed to determine safe drug concentrations for the transport and imaging experiments. Cells were seeded in 96-well flat bottom plate (Corning, NY, USA) at a density of 2 × 10^5 cells/mL. A wide concentration range was chosen, considering a molar ratio of 1:5 polymyxin B to tobramycin based on the literature. Lactate dehydrogenase (LDH) assay was used for the measurement of cytotoxicity. Vehicle-treated cells were considered as the negative control, while 10× lysis buffer treated cells were employed as the positive control. For the imaging study, Calu-3 cells were cultured in a 35 mm glass bottom culture dish at a density of 2 × 10^5 cells/mL and were treated with a vehicle, tobramycin 700 mg/L, polymyxin B 300 mg/L, and the combination. After treatment, cells were washed with PBS and stained with PI (100 ng/mL) and DAPI (1 mg/L) for 30 min in dark. Cells were washed again with PBS and mounted for imaging with Calu-3 cell culture media.
# megalin = target: T1, megalin (Homo sapiens, UniProt P98164); assay: Megalin substrate FITC-BSA uptake by Calu-3 cells, confocal microscopy; assay type: cell-based; settings: 4 h; for ratio of FITC-BSA to nucleus integrated density: 100 mg/L FITC-BSA, Calu-3 cells, FITC-BSA only 0.58 ± 0.04; for effect on cellular uptake of FITC-BSA: polymyxin B 30 and 60 mg/L, tobramycin 70 and 140 mg/L
# T1 construct: endogenous in cells; host or cells: Calu-3 (human lung epithelial cells)
# Protocol: As albumin is an endogenous substrate of megalin [30], cellular distribution of fluorescein-labeled BSA (FITC-BSA) was evaluated in the presence of polymyxin B and tobramycin to investigate the functional activity of megalin in Calu-3 cells. Calu-3 cells were grown in an eight-well chamber slide at a density of 2 × 10^5 cell/mL in 10% FBS supplemented DMEM/F-12 cell culture media. After overnight incubation at 37 °C and 5% CO2, cells were washed to remove old media and were incubated for 4 h with 100 μg/mL of FITC-BSA in fresh cell culture media and in the presence and absence of polymyxin B (30 and 60 mg/L) and tobramycin (70 and 140 mg/L). After 4 h, cells were washed and stained with Hoechst for nucleus staining and cell mask deep red for cell membrane staining. Cells were finally washed and covered with Prolong gold antifade mounting reagent and mounted on a 60× oil immersion objective for imaging. Images were taken with a Nikon Eclipse T1 confocal microscope. Images were processed with Nikon (NIS-Elements) and Image J (version 1.54) software.
# Calu-3 cell monolayer [3] = assay: Transport study in air liquid interface Calu-3 cell monolayer; settings: LC-MS/MS; for transport rate, apparent permeability coefficient (Papp), in combination compared to drug alone / amount remaining in the apical chamber, combination compared to drug alone / transport from apical chamber to basal medium: Calu-3 ALI monolayer; for transport rate, apparent permeability coefficient (Papp), in combination compared to drug alone: apical to basal, polymyxin B 30 mg/L + tobramycin 70 mg/L vs each alone, p < 0.0001; for transport rate, apparent permeability coefficient (Papp), in combination compared to drug alone / transport from apical chamber to basal medium / accumulation in Calu-3 cell monolayer: HBSS; for amount remaining in the apical chamber, combination compared to drug alone: after 4 h of transport study; for transport from apical chamber to basal medium: 4 h; for accumulation in Calu-3 cell monolayer: at 4 h
# Protocol: Human lung epithelial Calu-3 cells were grown in a 6.5 mm cell culture insert in a trans-well plate for 3 days using both apical and basal media. The apical media was withdrawn to let the cells grow in an air liquid interface (ALI). The system was maintained for 14 days, with the basal media changed every other day. The culture medium was DMEM/F-12 supplemented with 10% (v/v, FBS) and 1% (v/v) nonessential amino acid, and penicillin and streptomycin (100 units/mL of penicillin and 100 mg/L of streptomycin). After 14 days of differentiation at the ALI condition, the trans-epithelial electrical resistance (TEER) value was measured to investigate the integrity of the formed Calu-3 monolayer.
# The transport study was conducted in the Calu-3 cell monolayer according to our previously published ALI culture protocol. TEER values were measured before and after the transport study to ensure the cell monolayer integrity was maintained. As the transport process was done in HBSS buffer, the drug solution was also prepared in HBSS buffer. The cell monolayer inserts were incubated with HBSS buffer for 30 min to equilibrate. The following drug solutions were used in the transport process: polymyxin B 30 mg/L, tobramycin 70 mg/L, and the combination of polymyxin B 30 mg/L and tobramycin 70 mg/L. An aliquot of 200 µL of drug solution was added to the apical chamber and 600 µL of HBSS buffer was added to the basal chamber. The samples were collected from the basal chamber every hour for a total of 4 h and the basal chamber was refilled with fresh HBSS buffer. Transported drug from the basal chamber, remaining drug from the apical chamber, and drug accumulated in the cell monolayer were extracted and analyzed using a reversed-phase LC/MS system. Drug extraction and LC/MS analysis was performed according to a previously published protocol.
# For the transported samples, all buffer in the basal chamber was collected to a centrifuge tube. Colistin (1 mg/L) was added as the internal standard, and formic acid (0.1%, v/v) was added to each sample. For drug analysis in the cell, the insert was cut using a sharp scalpel. The cells in the membrane were lysed overnight with RIPA buffer and 200 µL of each sample was used to extract the drug using a protein precipitation method. Acetonitrile (400 µL) was added to the cell lysate and vortexed well to precipitate all the protein. Internal standard and formic acid were added to the samples as previously described, vortexed well, and centrifuged before transferring the supernatant into the injection vial.
# The drugs were analyzed using an LC-MS/MS equipped with a C18 column (2.6 μm, 50 mm × 3 mm), a liquid chromatography system (Agilent 1200, Santa Clara, CA, USA), and a triple quadrupole mass spectrometer (Agilent 6460 QQQ, Santa Clara, CA, USA) with an electrospray ionization source. The mobile phase was 0.1% formic acid solution in water (90%) and 0.1% formic acid solution in acetonitrile (10%) with a flow rate of 0.6 mL/min. A gradient elution procedure was used, and each component was measured via multiple reaction monitoring (MRM) in the positive ionization mode (Table 1).
# [4] = drug alone, without sodium maleate, Calu-3 ALI monolayer, LC-MS/MS
# [5] = with sodium maleate 8 mg/mL (4 h pre-incubation), Calu-3 ALI monolayer, LC-MS/MS
# [6] = combination (polymyxin B 30 mg/L + tobramycin 70 mg/L), p < 0.0001 vs alone
# [7] = drug alone (polymyxin B 30 mg/L or tobramycin 70 mg/L), cell lysate RIPA
# T1 sequence (P98164 26-4655): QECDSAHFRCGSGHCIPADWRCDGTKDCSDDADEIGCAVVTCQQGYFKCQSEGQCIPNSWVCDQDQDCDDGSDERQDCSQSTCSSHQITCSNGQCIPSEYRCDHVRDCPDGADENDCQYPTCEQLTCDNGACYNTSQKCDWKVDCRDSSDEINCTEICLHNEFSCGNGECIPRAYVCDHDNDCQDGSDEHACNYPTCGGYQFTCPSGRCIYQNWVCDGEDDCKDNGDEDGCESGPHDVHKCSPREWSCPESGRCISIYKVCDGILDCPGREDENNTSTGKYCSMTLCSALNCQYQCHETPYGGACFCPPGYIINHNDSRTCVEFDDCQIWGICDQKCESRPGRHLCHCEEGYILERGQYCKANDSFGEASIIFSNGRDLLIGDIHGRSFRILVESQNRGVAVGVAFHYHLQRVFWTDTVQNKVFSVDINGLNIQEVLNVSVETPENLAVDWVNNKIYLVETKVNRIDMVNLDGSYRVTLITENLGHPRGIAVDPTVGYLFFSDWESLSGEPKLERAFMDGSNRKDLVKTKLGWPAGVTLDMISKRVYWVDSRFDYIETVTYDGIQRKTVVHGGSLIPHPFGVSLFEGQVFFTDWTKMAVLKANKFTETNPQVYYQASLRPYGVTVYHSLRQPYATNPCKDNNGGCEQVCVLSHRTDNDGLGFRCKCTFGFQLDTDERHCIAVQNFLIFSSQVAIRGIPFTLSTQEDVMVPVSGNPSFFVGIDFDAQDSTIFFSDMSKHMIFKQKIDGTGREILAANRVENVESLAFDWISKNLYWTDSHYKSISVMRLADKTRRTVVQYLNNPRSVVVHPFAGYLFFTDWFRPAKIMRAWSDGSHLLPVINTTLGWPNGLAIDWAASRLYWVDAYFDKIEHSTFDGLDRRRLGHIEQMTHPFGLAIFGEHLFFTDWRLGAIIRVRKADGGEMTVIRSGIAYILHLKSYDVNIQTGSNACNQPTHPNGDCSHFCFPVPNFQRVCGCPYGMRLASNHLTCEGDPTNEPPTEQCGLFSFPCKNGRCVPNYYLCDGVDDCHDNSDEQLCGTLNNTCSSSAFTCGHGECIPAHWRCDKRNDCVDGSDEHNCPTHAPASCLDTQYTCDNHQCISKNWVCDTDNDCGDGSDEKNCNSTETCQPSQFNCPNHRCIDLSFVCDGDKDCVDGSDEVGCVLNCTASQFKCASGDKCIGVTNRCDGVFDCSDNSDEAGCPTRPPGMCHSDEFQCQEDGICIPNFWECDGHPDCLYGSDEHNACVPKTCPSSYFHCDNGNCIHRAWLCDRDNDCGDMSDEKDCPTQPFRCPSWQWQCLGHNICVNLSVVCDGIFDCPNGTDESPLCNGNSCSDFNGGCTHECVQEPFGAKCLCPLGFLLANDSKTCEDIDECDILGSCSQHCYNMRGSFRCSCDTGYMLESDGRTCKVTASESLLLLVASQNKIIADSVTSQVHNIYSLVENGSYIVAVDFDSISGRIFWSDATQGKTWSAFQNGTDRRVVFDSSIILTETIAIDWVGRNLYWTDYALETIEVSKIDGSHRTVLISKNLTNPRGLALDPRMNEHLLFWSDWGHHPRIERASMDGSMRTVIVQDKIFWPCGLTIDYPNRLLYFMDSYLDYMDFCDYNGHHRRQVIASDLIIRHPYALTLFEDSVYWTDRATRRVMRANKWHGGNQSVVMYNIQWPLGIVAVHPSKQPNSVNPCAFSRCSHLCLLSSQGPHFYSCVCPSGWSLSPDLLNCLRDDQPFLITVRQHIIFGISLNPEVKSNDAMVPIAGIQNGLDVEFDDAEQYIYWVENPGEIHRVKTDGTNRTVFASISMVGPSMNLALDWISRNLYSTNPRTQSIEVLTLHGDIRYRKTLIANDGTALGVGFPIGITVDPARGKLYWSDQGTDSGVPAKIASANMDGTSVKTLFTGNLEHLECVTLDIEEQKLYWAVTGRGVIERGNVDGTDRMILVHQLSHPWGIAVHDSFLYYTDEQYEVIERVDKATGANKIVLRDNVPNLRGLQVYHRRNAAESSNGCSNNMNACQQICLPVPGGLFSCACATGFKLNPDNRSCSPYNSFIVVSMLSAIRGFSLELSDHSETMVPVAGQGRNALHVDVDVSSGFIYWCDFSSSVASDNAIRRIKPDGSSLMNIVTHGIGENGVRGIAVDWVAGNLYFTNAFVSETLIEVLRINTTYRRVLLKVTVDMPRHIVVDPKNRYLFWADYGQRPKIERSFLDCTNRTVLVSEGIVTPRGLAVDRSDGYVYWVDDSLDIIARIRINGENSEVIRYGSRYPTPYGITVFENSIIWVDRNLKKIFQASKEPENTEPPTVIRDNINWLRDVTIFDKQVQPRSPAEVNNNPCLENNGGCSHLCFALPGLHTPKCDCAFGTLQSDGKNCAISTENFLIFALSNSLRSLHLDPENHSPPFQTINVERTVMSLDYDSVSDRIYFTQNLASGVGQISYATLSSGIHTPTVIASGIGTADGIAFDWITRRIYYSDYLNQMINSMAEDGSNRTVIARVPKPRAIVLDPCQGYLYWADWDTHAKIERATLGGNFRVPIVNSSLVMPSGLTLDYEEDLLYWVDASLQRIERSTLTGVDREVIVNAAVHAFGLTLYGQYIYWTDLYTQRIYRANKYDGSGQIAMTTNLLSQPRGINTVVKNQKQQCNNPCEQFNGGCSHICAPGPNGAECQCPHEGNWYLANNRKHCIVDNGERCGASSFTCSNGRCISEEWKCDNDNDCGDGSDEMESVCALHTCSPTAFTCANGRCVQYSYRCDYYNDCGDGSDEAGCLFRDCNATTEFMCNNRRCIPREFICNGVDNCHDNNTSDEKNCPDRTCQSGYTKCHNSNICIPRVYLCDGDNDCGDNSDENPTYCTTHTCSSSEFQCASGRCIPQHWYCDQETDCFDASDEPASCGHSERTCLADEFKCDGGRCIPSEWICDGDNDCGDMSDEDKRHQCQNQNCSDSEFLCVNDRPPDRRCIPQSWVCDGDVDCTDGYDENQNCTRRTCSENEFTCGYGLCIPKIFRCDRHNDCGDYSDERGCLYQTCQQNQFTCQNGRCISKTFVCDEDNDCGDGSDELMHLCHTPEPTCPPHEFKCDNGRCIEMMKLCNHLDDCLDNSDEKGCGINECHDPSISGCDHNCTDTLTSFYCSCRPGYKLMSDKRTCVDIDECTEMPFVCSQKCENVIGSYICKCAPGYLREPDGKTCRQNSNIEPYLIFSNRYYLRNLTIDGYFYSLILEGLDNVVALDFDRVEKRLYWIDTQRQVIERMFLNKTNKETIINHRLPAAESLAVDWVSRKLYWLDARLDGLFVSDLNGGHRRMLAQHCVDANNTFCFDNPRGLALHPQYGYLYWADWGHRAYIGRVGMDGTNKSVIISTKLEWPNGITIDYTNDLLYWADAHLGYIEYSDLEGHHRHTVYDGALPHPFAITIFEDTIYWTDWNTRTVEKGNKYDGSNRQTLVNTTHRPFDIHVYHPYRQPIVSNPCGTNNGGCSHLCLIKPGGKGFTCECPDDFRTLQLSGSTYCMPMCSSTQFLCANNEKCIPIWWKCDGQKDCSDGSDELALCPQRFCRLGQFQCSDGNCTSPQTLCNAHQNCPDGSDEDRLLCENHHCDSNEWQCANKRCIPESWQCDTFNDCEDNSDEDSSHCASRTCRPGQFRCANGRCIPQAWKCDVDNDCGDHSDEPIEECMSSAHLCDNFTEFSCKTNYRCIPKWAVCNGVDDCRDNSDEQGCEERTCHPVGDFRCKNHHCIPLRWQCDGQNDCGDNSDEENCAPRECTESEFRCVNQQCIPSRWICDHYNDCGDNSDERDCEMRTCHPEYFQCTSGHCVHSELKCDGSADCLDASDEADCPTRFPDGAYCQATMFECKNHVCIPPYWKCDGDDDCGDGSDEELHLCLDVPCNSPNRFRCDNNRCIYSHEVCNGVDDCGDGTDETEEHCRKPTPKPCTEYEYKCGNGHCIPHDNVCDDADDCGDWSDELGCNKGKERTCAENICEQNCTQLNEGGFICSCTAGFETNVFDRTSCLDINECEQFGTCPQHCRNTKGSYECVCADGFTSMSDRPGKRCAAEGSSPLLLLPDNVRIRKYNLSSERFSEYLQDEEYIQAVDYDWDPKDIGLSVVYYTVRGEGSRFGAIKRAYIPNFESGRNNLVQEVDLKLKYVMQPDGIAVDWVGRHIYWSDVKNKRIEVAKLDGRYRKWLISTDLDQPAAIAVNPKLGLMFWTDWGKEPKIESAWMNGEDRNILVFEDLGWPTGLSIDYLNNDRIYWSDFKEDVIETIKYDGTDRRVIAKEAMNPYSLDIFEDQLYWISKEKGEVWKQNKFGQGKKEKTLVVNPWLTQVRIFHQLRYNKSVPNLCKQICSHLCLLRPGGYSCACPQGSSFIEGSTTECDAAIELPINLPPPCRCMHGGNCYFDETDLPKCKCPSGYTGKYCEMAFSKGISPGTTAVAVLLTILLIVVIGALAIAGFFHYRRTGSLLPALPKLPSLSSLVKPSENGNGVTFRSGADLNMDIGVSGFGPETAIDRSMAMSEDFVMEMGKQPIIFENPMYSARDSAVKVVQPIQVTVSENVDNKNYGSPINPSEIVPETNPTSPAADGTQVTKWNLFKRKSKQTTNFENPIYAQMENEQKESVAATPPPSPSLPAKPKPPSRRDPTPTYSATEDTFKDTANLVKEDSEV
smiles,measurement,setting,value
O=C([O-])/C=C\C(=O)[O-].[Na+].[Na+] [sodium maleate],decrease of renal cortex accumulation of amikacin,renal cortex,50%
"CC[C@H](C)CCCCC(=O)N[C@@H](CCN)C(=O)N[C@H](C(=O)N[C@@H](CCN)C(=O)N[C@H]1CCNC(=O)[C@H]([C@@H](C)O)NC(=O)[C@H](CCN)NC(=O)[C@H](CCN)NC(=O)[C@H](CC(C)C)NC(=O)[C@@H](Cc2ccccc2)NC(=O)[C@H](CCN)NC1=O)[C@@H](C)O [polymyxin B, Polymyxin B] (X1-[Dab]T[Dab][Dab][Dab][dF]L[Dab][Dab]T; lactam 4-C)",polymyxin B intensity per cell,"Calu-3 cells; combination polymyxin B 30 mg/L + tobramycin 70 mg/L, mean ± SD, p < 0.001 vs polymyxin B alone",932.3 ± 136.0
same,polymyxin B intensity per cell,"Calu-3 cells; polymyxin B 30 mg/L alone, Alexa 647, mean ± SD, saline control 113.0 ± 13.6",2259.3 ± 309.4
same,cellular accumulation,Calu-3 cell monolayer [1]; [4],26.5 ± 2.1%
same,remaining in the apical chamber,Calu-3 cell monolayer [1]; [4],59.9 ± 1.2%
same,transported from the apical chamber to the basal chamber,"Calu-3 cell monolayer [1]; drug alone, without sodium maleate, Calu-3 ALI monolayer, 2 h incubation, LC-MS/MS",13.5 ± 1.6%
same,transported from the apical chamber to the basal chamber,"Calu-3 cell monolayer [1]; in the presence of sodium maleate 8 mg/mL (4 h pre-incubation), Calu-3 ALI monolayer, 2 h incubation, LC-MS/MS",8.2 ± 0.9%
same,cellular accumulation,Calu-3 cell monolayer [1]; [5],8.1 ± 0.4%
same,remaining in the apical chamber,Calu-3 cell monolayer [1]; [5],83.7 ± 1.3%
same,intracellular accumulation normalized to protein,"Calu-3 cell monolayer [1]; with sodium maleate 8 mg/mL (4 h pre-incubation), LC-MS/MS",1.9 ± 0.04 ng/µg of protein
same,intracellular accumulation normalized to protein,"Calu-3 cell monolayer [1]; without sodium maleate, LC-MS/MS",6.0 ± 0.8 ng/µg of protein
same,safety of concentrations chosen for the transport study,"[2]; 30 mg/L polymyxin B alone, 70 mg/L tobramycin alone, and their combination, based on cell viability data",safe
same,cell death compared to the control,"[2]; at 300 mg/L, LDH assay",significant cell death
same,PI intensity,"[2]; polymyxin B 300 mg/L treated Calu-3 cells, mean ± SD (n = 3), p < 0.001 vs control",4334.0 ± 1131.6
same,ratio of FITC-BSA to nucleus integrated density,megalin; 30 mg/L polymyxin B,0.36 ± 0.03
same,ratio of FITC-BSA to nucleus integrated density,megalin; 60 mg/L polymyxin B,0.29 ± 0.02
same,effect on cellular uptake of FITC-BSA,megalin,prevented the cellular uptake of FITC-BSA in a concentration-dependent manner
same,"transport rate, apparent permeability coefficient (Papp), in combination compared to drug alone",Calu-3 cell monolayer [3],decreased significantly
same,"amount remaining in the apical chamber, combination compared to drug alone",Calu-3 cell monolayer [3],Significantly higher amounts
same,transport from apical chamber to basal medium,Calu-3 cell monolayer [3]; [6],3.9 ± 0.3%
same,accumulation in Calu-3 cell monolayer,Calu-3 cell monolayer [3]; [6],6.4 ± 0.1%
same,accumulation in Calu-3 cell monolayer,Calu-3 cell monolayer [3]; [7],21.4 ± 2.0%
same,transport from apical chamber to basal medium,"Calu-3 cell monolayer [3]; drug alone (polymyxin B 30 mg/L), 30 min equilibration",7.1 ± 0.4%
NC[C@H]1O[C@H](O[C@H]2[C@H](O)[C@@H](O[C@H]3O[C@H](CO)[C@@H](O)[C@H](N)[C@H]3O)[C@H](N)C[C@@H]2N)[C@H](N)C[C@@H]1O [tobramycin],transported from the apical chamber to the basal chamber,Calu-3 cell monolayer [1],11.9 ± 1.3%
same,reduction in viability of Calu-3 cells compared to the control,[2],did not result in any reduction in the viability
same,ratio of FITC-BSA to nucleus integrated density,megalin; 70 mg/L tobramycin,0.41 ± 0.02
same,ratio of FITC-BSA to nucleus integrated density,megalin; 140 mg/L tobramycin,0.30 ± 0.02
same,effect on cellular uptake of FITC-BSA,megalin,prevented the cellular uptake of FITC-BSA in a concentration-dependent manner
same,"transport rate, apparent permeability coefficient (Papp), in combination compared to drug alone",Calu-3 cell monolayer [3],decreased significantly
same,"amount remaining in the apical chamber, combination compared to drug alone",Calu-3 cell monolayer [3],Significantly higher amounts
same,accumulation in Calu-3 cell monolayer,Calu-3 cell monolayer [3]; [6],3.8 ± 0.8%
same,accumulation in Calu-3 cell monolayer,Calu-3 cell monolayer [3]; [7],13.2 ± 4.3%
